Source: ChEMBL document CHEMBL1157802, “5-Functionalized indazoles as glucocorticoid receptor agonists” (Bioorg Med Chem Lett, 2010)

Assays:
[1] = Inhibition of NMDA receptor at 1 uM
[2] = biological target: Histamine H1 receptor (Homo sapiens) (UniProt P35367); assay: Inhibition of histamine H1 receptor at 1 uM
[3] = Inhibition of central imidazoline I2 receptor at 1 uM
[4] = biological target: T1, Muscarinic acetylcholine receptor M2 (Homo sapiens) (UniProt P08172); assay: Inhibition of muscarinic M2 receptor at 1 uM
T1 sequence (whole entry): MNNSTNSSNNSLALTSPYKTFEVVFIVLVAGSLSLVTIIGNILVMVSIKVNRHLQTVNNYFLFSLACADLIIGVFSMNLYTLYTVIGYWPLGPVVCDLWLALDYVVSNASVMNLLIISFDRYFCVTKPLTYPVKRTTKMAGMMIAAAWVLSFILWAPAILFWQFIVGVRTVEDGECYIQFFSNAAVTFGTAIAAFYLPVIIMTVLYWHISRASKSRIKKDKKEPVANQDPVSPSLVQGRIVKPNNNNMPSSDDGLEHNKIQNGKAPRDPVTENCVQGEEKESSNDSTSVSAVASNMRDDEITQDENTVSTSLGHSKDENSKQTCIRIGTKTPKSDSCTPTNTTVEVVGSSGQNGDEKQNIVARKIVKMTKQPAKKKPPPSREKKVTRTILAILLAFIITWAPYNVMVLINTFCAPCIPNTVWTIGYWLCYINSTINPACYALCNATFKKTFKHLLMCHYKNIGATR

[5] = biological target: Muscarinic acetylcholine receptor M3 (Homo sapiens) (UniProt P20309); assay: Inhibition of muscarinic M3 receptor at 1 uM
Chain of Muscarinic acetylcholine receptor M3 (Homo sapiens) (P20309 whole entry, looked up): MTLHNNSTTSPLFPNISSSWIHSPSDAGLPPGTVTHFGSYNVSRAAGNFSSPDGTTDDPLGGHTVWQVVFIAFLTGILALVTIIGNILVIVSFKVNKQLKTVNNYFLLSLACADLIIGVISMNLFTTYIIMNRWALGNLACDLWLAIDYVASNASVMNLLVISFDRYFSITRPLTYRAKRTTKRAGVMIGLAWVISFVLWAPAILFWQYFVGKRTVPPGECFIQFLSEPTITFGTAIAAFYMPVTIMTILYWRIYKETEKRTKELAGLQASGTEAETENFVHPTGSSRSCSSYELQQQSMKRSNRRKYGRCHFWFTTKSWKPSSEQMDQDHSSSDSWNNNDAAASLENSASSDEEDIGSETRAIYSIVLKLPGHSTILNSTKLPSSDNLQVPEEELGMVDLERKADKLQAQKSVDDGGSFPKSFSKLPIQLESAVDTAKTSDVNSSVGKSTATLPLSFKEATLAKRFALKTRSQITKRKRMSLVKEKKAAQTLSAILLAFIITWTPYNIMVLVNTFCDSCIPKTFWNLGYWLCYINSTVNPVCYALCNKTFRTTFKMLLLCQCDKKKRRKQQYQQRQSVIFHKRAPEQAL

[6] = Inhibition of nicotinic acetylcholine receptor at 1 uM
[7] = Inhibition of nicotinic bungarotoxin-sensitive acetylcholine receptor at 1 uM
[8] = biological target: Mu-type opioid receptor (Homo sapiens) (UniProt P35372); assay: Inhibition of mu opioid receptor at 1 uM
Chain of Mu-type opioid receptor (Homo sapiens) (P35372 whole entry): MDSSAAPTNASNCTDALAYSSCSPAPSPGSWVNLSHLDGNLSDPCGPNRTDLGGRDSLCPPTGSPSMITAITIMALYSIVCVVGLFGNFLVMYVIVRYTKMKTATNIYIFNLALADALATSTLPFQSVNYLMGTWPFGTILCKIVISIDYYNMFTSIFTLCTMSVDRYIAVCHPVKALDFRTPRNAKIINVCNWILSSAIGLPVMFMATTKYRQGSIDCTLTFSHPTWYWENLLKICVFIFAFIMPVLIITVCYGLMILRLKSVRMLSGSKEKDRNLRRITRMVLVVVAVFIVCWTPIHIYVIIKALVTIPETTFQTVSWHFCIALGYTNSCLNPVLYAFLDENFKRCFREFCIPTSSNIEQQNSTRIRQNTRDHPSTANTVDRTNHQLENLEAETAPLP

[9] = Inhibition of ATP-sensitive potassium channel at 1 uM
hERG (KCNH2) = hERG (KCNH2) (Homo sapiens, UniProt Q12809); assay: Inhibition of human ERG at 1 uM
[10] = biological target: Prostaglandin E2 receptor EP4 subtype (Homo sapiens) (UniProt P35408); assay: Inhibition of prostanoid EP4 receptor at 1 uM
Chain of Prostaglandin E2 receptor EP4 subtype (Homo sapiens) (P35408 whole entry): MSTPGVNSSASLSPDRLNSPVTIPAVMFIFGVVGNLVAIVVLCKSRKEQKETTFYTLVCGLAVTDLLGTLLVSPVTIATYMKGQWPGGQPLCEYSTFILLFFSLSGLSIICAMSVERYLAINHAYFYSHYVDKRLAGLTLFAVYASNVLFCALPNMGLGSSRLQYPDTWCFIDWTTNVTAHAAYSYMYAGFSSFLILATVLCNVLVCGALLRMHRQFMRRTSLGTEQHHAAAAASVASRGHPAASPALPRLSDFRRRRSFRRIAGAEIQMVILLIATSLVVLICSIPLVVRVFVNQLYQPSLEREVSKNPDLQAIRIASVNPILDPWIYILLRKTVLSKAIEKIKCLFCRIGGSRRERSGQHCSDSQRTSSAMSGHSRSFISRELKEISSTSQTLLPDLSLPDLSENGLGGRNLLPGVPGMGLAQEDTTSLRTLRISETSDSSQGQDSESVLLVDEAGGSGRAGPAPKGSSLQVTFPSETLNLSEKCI

[11] = Inhibition of rolipram binding site at 1 uM
[12] = Inhibition of sigma 2 receptor at 1 uM
[13] = Inhibition of sodium channel site 2 at 1 uM
[14] = biological target: Sodium-dependent noradrenaline transporter (Homo sapiens) (UniProt P23975); assay: Inhibition of norepinephrine transporter at 1 uM
Chain of Sodium-dependent noradrenaline transporter (Homo sapiens) (P23975 whole entry): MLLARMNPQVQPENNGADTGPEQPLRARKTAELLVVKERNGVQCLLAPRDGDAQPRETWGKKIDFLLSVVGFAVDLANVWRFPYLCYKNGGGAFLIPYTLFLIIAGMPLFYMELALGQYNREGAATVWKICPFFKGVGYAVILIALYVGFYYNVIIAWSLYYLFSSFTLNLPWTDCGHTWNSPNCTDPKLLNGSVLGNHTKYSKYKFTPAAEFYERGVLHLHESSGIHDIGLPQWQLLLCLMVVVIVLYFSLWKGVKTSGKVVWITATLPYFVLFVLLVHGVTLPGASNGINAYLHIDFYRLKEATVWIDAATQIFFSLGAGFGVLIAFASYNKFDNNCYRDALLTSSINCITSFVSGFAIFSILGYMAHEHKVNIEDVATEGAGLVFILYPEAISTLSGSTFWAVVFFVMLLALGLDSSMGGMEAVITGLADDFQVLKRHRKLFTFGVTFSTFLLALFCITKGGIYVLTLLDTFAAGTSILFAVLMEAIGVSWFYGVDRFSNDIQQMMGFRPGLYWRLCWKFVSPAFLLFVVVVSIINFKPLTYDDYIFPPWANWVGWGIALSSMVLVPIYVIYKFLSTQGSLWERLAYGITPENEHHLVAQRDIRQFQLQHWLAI

[15] = Inhibition of phorbol ester site of PKC at 1 uM
Glucocorticoid receptor [16] = biological target: T2, Glucocorticoid receptor (Homo sapiens, UniProt P04150); assay: Agonist activity at glucocorticoid receptor in human fibroblast assessed as inhibition of IL-1-beta-induced IL6 production treated 1 hr before IL1-beta challenge measured after 24 hrs by transrepression assay; assay type: functional
T2 sequence (P04150 whole entry): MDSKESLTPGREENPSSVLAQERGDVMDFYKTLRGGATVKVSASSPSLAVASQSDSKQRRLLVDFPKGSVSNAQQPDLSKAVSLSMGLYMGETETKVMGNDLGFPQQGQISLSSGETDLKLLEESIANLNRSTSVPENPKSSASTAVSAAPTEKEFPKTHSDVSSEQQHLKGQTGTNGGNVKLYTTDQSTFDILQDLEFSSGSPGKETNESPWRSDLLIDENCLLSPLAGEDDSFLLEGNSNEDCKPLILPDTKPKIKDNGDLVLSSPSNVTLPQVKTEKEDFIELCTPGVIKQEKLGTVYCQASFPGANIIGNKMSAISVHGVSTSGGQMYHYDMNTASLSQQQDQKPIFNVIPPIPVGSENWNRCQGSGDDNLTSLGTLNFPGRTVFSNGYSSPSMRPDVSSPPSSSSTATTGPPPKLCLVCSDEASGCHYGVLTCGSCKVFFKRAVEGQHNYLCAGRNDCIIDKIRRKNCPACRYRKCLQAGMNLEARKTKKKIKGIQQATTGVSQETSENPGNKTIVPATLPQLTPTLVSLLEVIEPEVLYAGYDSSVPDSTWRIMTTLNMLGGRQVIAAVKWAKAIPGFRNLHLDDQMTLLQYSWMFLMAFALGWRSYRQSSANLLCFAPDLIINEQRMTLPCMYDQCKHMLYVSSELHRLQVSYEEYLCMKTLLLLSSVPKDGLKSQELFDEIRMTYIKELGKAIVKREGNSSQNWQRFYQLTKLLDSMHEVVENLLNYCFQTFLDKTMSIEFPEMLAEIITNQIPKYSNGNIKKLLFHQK

Glucocorticoid receptor [17] = biological target: T2, Glucocorticoid receptor; assay: Agonist activity at glucocorticoid receptor in human MDA-kb2 cells transfected with MMTV-LUC assessed as induction of MMTV-LTR/promoter linked LUC gene by luciferase transactivation assay; assay type: functional, cell-based; conditions: mda-kb2
[18] = Selectivity for human glucocorticoid receptor over ERbeta
[19] = Selectivity for human glucocorticoid receptor over progesterone receptor
[20] = Selectivity for human glucocorticoid receptor over androgen receptor
[21] = biological target: Beta-1 adrenergic receptor (Homo sapiens) (UniProt P08588); assay: Inhibition of adrenergic beta-1 receptor at 1 uM
Chain of Beta-1 adrenergic receptor (Homo sapiens) (P08588 whole entry, looked up): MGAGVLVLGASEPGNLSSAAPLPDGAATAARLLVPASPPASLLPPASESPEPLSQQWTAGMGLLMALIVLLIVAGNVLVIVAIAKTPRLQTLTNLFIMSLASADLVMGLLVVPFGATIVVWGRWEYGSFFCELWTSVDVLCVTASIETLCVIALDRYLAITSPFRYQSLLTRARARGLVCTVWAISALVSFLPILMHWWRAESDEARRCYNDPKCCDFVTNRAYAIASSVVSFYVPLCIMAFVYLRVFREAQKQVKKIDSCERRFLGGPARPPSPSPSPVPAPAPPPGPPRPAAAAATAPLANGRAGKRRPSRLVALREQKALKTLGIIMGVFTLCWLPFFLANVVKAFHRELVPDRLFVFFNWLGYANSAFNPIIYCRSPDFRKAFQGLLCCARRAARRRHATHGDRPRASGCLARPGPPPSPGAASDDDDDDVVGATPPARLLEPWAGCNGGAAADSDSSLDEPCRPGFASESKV

[22] = biological target: Adenosine receptor A2a (Homo sapiens) (UniProt P29274); assay: Inhibition of adenosine A2A receptor at 1 uM
Chain of Adenosine receptor A2a (Homo sapiens) (P29274 whole entry): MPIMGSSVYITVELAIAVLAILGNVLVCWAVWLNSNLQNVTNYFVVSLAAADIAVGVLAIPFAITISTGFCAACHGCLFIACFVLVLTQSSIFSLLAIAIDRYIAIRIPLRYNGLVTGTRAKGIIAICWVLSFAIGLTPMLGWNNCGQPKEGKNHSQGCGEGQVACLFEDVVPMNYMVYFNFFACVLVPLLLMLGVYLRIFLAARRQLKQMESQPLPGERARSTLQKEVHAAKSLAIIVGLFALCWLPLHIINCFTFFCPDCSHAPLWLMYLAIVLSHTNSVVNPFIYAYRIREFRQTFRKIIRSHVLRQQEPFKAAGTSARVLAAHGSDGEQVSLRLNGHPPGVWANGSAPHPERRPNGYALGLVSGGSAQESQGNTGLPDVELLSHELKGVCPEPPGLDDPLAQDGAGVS

[23] = biological target: T3, Alpha-1B adrenergic receptor (Homo sapiens) (UniProt P35368); assay: Inhibition of adrenergic Alpha-1B receptor at 1 uM
T3 sequence (whole entry): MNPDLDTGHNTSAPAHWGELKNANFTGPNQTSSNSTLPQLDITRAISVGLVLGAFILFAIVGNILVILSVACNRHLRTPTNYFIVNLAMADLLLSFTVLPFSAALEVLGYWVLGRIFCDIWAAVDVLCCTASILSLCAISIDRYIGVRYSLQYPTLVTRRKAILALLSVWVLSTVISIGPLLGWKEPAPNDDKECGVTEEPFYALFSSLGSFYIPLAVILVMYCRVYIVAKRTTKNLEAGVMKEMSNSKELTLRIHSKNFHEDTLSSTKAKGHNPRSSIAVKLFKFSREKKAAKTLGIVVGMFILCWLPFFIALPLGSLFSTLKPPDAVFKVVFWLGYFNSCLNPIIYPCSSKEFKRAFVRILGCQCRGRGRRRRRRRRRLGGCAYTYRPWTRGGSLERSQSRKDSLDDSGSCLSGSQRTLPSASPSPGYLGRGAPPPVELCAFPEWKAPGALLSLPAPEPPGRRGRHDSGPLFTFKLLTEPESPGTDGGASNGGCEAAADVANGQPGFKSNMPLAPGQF

[24] = biological target: D(1A) dopamine receptor (Homo sapiens) (UniProt P21728); assay: Inhibition of dopamine D1 receptor at 1 uM
Chain of D(1A) dopamine receptor (Homo sapiens) (P21728 whole entry): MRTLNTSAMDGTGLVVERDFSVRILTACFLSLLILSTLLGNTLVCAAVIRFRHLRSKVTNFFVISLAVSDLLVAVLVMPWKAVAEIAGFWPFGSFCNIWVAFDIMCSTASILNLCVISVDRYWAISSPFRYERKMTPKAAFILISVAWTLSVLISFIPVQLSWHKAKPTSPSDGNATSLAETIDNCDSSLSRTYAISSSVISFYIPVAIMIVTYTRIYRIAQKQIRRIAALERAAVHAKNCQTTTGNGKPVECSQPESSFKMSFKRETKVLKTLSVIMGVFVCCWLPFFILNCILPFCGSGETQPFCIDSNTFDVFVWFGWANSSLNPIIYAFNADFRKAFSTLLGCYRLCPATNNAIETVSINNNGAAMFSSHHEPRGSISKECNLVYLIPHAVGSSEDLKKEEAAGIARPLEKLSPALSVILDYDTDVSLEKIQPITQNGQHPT

[25] = biological target: D(2) dopamine receptor (Homo sapiens) (UniProt P14416); assay: Inhibition of dopamine D2S receptor at 1 uM
Chain of D(2) dopamine receptor (Homo sapiens) (P14416 whole entry): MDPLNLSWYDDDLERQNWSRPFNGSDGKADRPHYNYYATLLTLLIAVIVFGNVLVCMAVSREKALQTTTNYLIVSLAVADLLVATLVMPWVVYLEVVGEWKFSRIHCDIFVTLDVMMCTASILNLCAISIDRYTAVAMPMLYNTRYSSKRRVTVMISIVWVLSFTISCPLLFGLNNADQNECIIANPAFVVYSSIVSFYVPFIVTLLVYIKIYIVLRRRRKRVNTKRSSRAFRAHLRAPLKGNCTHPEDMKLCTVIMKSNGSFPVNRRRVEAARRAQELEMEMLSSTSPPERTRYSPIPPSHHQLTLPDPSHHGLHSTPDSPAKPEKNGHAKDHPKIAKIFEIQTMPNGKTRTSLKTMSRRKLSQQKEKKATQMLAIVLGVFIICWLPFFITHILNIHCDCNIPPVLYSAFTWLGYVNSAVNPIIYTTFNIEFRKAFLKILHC

[26] = Inhibition of central benzodiazepine receptor at 1 uM
Glucocorticoid receptor [27] = biological target: T2, Glucocorticoid receptor
Description: Binding affinity to human glucocorticoid receptor by fluorescence polarization competitive binding assay

Chain of Histamine H1 receptor (Homo sapiens) (P35367 whole entry): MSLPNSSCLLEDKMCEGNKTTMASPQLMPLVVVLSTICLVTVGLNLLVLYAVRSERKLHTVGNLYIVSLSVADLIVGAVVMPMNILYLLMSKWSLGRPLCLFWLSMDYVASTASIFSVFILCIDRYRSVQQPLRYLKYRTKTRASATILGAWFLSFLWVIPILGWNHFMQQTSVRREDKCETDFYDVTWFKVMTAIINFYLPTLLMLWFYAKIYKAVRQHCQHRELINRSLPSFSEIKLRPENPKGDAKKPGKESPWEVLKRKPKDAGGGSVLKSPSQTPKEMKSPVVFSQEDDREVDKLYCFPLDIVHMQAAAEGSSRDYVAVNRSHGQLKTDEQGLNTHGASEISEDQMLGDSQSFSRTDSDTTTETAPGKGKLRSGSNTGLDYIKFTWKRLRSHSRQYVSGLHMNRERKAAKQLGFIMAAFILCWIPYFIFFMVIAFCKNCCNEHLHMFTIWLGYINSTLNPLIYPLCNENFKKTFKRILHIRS

Row | SMILES | inhibition [1] | inhibition [2] | inhibition [3] | inhibition [4] | inhibition [5] | inhibition [6] | inhibition [7] | inhibition [8] | inhibition [9] | inhibition at 1 µM (hERG (KCNH2)) | inhibition [10] | inhibition [11] | inhibition [12] | inhibition [13] | inhibition [14] | inhibition [15] | EC50 (Glucocorticoid receptor [16]) | EC50 (Glucocorticoid receptor [17]) | Ratio [18] | Ratio [19] | other results
1 | OC(c1ccnc(Cl)c1)(c1ccc2c(cnn2-c2ccc(F)cc2)c1)C(F)(F)F (single isomer, unassigned; (-)) | < 50% | < 50% | < 50% | < 50% | < 50% | < 50% | < 50% | < 50% | < 50% | < 50% | < 50% | < 50% | < 50% | < 50% | < 50% | < 50% | 627 nM | Not Active | > 1000 | > 1000 | Ratio [20]: > 1000; inhibition [21]: < 50%; inhibition [22]: < 50%; inhibition [23]: < 50%; inhibition [24]: < 50%; inhibition [25]: < 50%; inhibition [26]: < 50%; IC50 (Glucocorticoid receptor [27]): 14 nM
2 | Cc1cc(C(O)(c2ccc3c(cnn3-c3ccc(F)cc3)c2)C(F)(F)F)ccc1F (single isomer, unassigned; (-)) | < 50% | < 50% | < 50% | < 50% | < 50% | < 50% | < 50% | < 50% | < 50% | < 50% | < 50% | < 50% | < 50% | < 50% | < 50% | < 50% | 93 nM | Not Active | > 1000 | > 1000 | Ratio [20]: > 1000; inhibition [21]: < 50%; inhibition [22]: < 50%; inhibition [23]: < 50%; inhibition [24]: < 50%; inhibition [25]: < 50%; inhibition [26]: < 50%; IC50 (Glucocorticoid receptor [27]): 59 nM
